Reference: publication PMC4761891, “CD36 is a co-receptor for hepatitis C virus E1 protein attachment” (Scientific Reports, 2016)
Where two headings read alike, the source gives them in different places.

What was measured:
HCV [1] = assay: Anti-HCV activity in HCV-infected Huh7.5 cells (intracellular HCV RNA, qRT-PCR); type: cell-based, hepatitis C virus; settings: for EC50: Hepatitis C virus, read-out: half maximal effective concentration (EC50) against HCV at RNA level; for selective index (SI): Huh7.5 cells, cytotoxicity by MTT assay vs anti-HCV EC50, 72 hrs
KM mice = assay: Safety of SSO in vivo (single oral dose, KM mice); settings: single oral dose up to 1000 mg/kg, day 7
Text: KM mice at a weight of 21.0 ± 1.0 g were from Laboratory Animal Center, Academy of Military Medical Sciences, Beijing, China. The mice were randomly divided into four groups with 10 mice in each (♂ × 5, ♀ × 5). […] Body weight as well as survival was monitored. Seven days later, blood samples were taken for liver and kidney function examination.

[2] = test system: Influenza virus BV/Shenzhen/155/2005; assay: microbe, parasite or virus in culture; settings: unidentified influenza virus, MDCK
[3] = Cytotoxicity in HepG2.2.15 cells; type: cell-based; settings: human, HBV test
hepatitis B virus (HBV) = assay: Activity against HBV in HepG2.2.15 cells; type: cell-based
[4] = Cytotoxicity in Vero cells; type: cell-based; settings: African green monkey
[5] = test system: herpes simplex virus type 1 (HSV-1); assay: Activity against HSV-1 in Vero cells; type: cell-based; settings: Human alphaherpesvirus 1; HSV-1, Vero
HCV [6] = assay: Influence of CD36 level on the anti-HCV activity of SSO; type: cell-based, hepatitis C virus; settings: 5 μM SSO for 2 hrs, HCV 150 IU/cell, RNA in 96 hrs, P < 0.01
Description: Intracellular HCV RNA was analyzed with qRT-PCR in 96 hrs.

[7] = test system: HCV subgenomic replicon I 377-3′del.S in GS4.3 cells; assay: HCV subgenomic replicon replication in GS4.3 cells; type: cell-based, hepatitis C virus; settings: 72 hrs incubation, intracellular RNA; VX-950 at 1.0 μM
Description: Huh7.5 cells infected with HCV (45 IU/cell), or GS4.3 replicon cells were treated with different concentration of compounds. After 72 hrs, intracellular RNA was extracted with RNeasy Mini Kit; total intracellular proteins were extracted with PER. HCV RNA and proteins were analyzed with qRT-PCR and WB, respectively. Compound cytotoxicity in Huh7.5 cells or GS4.3 replicon cells were evaluated at 72 hrs with the tetrazolium (MTT, Amresco) assay.

SR-BI = molecular target: T1, SR-BI (Homo sapiens, UniProt Q8WTV0); assay: BIAcore surface plasmon resonance binding to SR-BI-HA; settings: immobilised SR-BI-HA
T1 construct: made in house; host or cells: 293T/17 cells
T1 sequence (Q8WTV0 1-509 isoform Q8WTV0-2): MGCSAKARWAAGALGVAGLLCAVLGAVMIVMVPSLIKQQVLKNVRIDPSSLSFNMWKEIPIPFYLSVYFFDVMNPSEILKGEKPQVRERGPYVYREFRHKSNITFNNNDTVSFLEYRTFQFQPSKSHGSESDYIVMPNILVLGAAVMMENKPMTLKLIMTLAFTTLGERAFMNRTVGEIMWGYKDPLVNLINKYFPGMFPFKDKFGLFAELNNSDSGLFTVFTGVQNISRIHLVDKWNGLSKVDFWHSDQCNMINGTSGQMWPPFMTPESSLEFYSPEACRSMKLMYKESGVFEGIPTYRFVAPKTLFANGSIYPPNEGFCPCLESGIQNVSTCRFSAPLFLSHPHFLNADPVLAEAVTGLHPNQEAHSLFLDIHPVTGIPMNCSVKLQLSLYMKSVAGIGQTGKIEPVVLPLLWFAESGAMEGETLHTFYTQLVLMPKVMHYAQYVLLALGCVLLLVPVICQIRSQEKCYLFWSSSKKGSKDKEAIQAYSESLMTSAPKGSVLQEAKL
Description: The 293T/17 cells were transfected with CD36-HA or SR-BI-HA plasmid using HD transfection reagent. At 48 hrs post transfection, cells were harvested and protein CD36-HA or SR-BI-HA was purified with Pierce Anti-HA Agarose (Thermo Scientific) and then desalinated with Zeba Spin Desaling Columns (Thermo Scientific). The concentration of purified proteins was quantified with Pierce BCA Protein Assay Kit (Thermo Scientific). Then, surface plasmon resonance experiments were performed on a BIAcore biosensor system (BIAcore T100). In brief, the carboxymethylated surface of series S sensor chip CM5 (GE Healthcare Bio-Sciences) was first activated with a mixture of N-hydroxysuccinimide (NHS) and 1-ethyl-3-(3- dimethylaminopropyl) carbodiimide hydro-chloride (EDC) (BIAcore AB). Subsequently, 200 μL of purified CD36-HA or SR-BI-HA at a concentration of 80 μg/mL was injected into the flow cell (FC2) for immobilization on the sensor surface. […] Compound VX-950 was used as negative control. Data were evaluated using the software BIAcore T100 Evaluation (BIAcore AB).

[8] = test system: hepatitis B virus, influenza virus, herpes simplex virus and Coxsackie virus; assay: Activity of CD36 inhibitors against other viruses; type: cell-based; settings: HepG2.2.15, MDCK and Vero cell cultures
[9] = test system: Coxsackie B virus (CoxV-B1); assay: microbe, parasite or virus in culture; settings: Vero
HCV [10] = assay: Inhibition of HCV entry (treatment before, during or after infection); type: cell-based, hepatitis C virus; settings: Huh7.5 cells
Text: Then, the cells were washed and cultured with fresh medium. Intracellular HCV RNA and proteins were detected in 72 hrs.

[11] = Cytotoxicity in MDCK cells; type: cell-based; settings: dog, Influenza virus A/Tianjin-Jinnan/15/2009 test
MDCK cells = assay: Cytotoxicity in MDCK cells; type: cell-based; settings: Influenza virus BV/Shenzhen/155/2005 test
HCV particle = assay: Interaction between HCV and compounds (direct inactivation of HCV particles); type: cell-based, hepatitis C virus; settings: 1 hr room temperature, Huh7.5, 72 hrs; for HCV inhibitory activity, Group 1 (treated HCV stock, no ultracentrifugation): SSO 10 μM or VX-950 0.5 μM, P < 0.01
[12] = test system: Influenza virus A/Tianjin-Jinnan/15/2009; assay: microbe, parasite or virus in culture; settings: unidentified influenza virus, MDCK
CD36 = molecular target: T2, CD36 (Homo sapiens, UniProt P16671); assay: BIAcore surface plasmon resonance binding to CD36-HA; settings: immobilised CD36-HA; SSO 50, 100, 200, 500 μM
T2 construct: made in house; host or cells: 293T/17 cells
T2 sequence (P16671 whole entry): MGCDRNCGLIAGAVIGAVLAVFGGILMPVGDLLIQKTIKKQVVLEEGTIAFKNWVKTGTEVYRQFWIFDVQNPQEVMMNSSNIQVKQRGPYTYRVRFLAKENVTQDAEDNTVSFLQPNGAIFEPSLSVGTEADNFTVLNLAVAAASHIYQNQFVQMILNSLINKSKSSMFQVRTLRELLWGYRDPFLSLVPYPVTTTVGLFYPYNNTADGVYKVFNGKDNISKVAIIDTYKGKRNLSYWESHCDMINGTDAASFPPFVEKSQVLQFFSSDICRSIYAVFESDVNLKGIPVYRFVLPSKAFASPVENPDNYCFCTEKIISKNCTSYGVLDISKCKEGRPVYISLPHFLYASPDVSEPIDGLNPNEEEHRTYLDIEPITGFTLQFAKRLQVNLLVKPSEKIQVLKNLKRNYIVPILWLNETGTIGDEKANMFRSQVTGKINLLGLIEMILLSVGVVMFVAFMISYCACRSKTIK

HCV [13] = assay: Time-of-addition assay; type: cell-based, hepatitis C virus; settings: 10 nM bafilomycin A1, Huh7.5, HCV 300 IU/cell
Description: Huh7.5 cells were infected with HCV (300 IU/cell) and incubated at 4 °C for 2 hrs, the cells were then washed with cold PBS and shifted to 37 °C (set as 0 hr time point) to initiate synchronous infection. […] Intracellular HCV RNA was detected after 72 hrs incubation. Inhibitory ratio was calculated as % relative to infectious control (0%). Fitted lines represent sigmoidal time-dependent curves.

For `COc1cc(O)c(/C=N/NC(=O)c2cc3ccccc3s2)c(OC)c1` [AP5055], the EC50 (HCV [1]; Huh7.5 cells infected with HCV (45 IU/cell), 72 hrs, intracellular HCV RNA) was 0.39 ± 0.16 µM and the “selective index (SI)” value (HCV [1]) was 25.

In the case of `CCCCCCCC/C=C\CCCCCCCC(=O)ON1C(=O)CC(S(=O)(=O)O)C1=O` (centres unmarked) [SSO, sulfo-N-succinimidyl oleate], the “liver and kidney function: blood GOT, GPT, BUN and CRE” value (KM mice) is reported as “abnormality was not detected”, the EC50 [2] is reported as 200 µM and the CC50 [3] is reported as greater than 100 µM. The EC50 (hepatitis B virus (HBV)) was greater than 100 µM, the CC50 ([4]; CoxV-B1 test) was 111 µM and the CC50 ([4]; HSV-1 test) was greater than 200 µM. For the same compound, the EC50 [5] was greater than 200 µM, the “anti-HCV activity of SSO in cells transfected with CD36 plasmid” value (HCV [6]) was “decreased” and the “anti-HCV activity of SSO in cells transfected with siRNA for CD36” value (HCV [6]) was “increased”. The “replication of the HCV replicon in GS4.3 cells” value [7] was “did not inhibit the replication”, the “direct binding to SR-BI (BIAcore)” value (SR-BI) was “no binding on SR-BI” and the “inhibitory activity on hepatitis B virus, influenza virus, herpes simplex virus and Coxsackie virus” value [8] was “no inhibitory activity”. For the same compound, the EC50 [9] was greater than 66.7 µM, the “HCV replication, treatment after infection” value (HCV [10]; 2 hrs treatment after infection, detected in 72 hrs, P > 0.05) was “no inhibitory effect” and the “HCV replication, treatment before and during HCV infection” value (HCV [10]; 2 hrs treatment, HCV RNA and proteins in 72 hrs, P < 0.01) was “strongly inhibit HCV replication”. The CC50 [11] was greater than 200 µM, the CC50 (MDCK cells) was greater than 200 µM and the “HCV inhibitory activity, Group 1 (treated HCV stock, no ultracentrifugation)” value (HCV particle) was “showed HCV inhibitory activity”. For the same compound, the “infectivity of treated virus, Group 2 (after ultracentrifugation)” value (HCV particle; SSO 10 μM, ultracentrifuged, P > 0.05) was “infectivity equal to that of untreated control”, the EC50 (HCV [1]; Huh7.5, 72 h) was 0.31 ± 0.09 µM and the “anti-HCV efficacy in combination with IFN-α” value (HCV [1]; SSO 1.0 μM + IFN-α 1.0 U/mL, HCV-infected Huh7.5 cells, 72 hrs, P < 0.05 vs IFN-α alone) was “enhanced anti-HCV efficacy”. For the same compound, the “anti-HCV efficacy in combination with telaprevir (VX-950)” value (HCV [1]; SSO 1.0 μM + VX-950 0.1 μM, HCV-infected Huh7.5 cells, 72 hrs, P < 0.05 vs telaprevir alone) was “enhanced anti-HCV efficacy” and the EC50 [12] was 79 µM.

With `CCC[C@H](NC(=O)[C@@H]1[C@H]2CCC[C@H]2CN1C(=O)[C@@H](NC(=O)[C@@H](NC(=O)c1cnccn1)C1CCCCC1)C(C)(C)C)C(=O)C(=O)NC1CC1` [VX-950, telaprevir] the “direct binding to CD36 (BIAcore)” value (CD36) was “did not bind onto CD36”, the “replication of the HCV replicon in GS4.3 cells” value [7] was “strong inhibitory effect” and the “direct binding to SR-BI (BIAcore)” value (SR-BI) was “no binding on SR-BI”. For the same compound, the “HCV inhibitory activity, Group 1 (treated HCV stock, no ultracentrifugation)” value (HCV particle) was “showed HCV inhibitory activity”.

With `COc1ccc2cc[n+](CCc3ccccc3)cc2c1O` [W-9] the EC50 (HCV [1]; Huh7.5, 72 h) was 6.61 ± 3.18 µM and the “selective index (SI)” value (HCV [1]) was 20.

For `CO/C1=C\C(C)=C\[C@@H](C)[C@@H](O)[C@@H](C)C/C(C)=C/C=C/[C@H](OC)[C@@H]([C@@H](C)[C@@H](O)[C@H](C)[C@@]2(O)C[C@@H](O)[C@H](C)[C@@H](C(C)C)O2)OC1=O` [bafilomycin A1], the “time HCV remained sensitive to the inhibitor after shift to 37 °C” value (HCV [13]) was 3 h.
